# T1: Solute carrier family 22 member 6 (Homo sapiens, UniProt Q4U2R8)
# T1 sequence (Q4U2R8 whole entry): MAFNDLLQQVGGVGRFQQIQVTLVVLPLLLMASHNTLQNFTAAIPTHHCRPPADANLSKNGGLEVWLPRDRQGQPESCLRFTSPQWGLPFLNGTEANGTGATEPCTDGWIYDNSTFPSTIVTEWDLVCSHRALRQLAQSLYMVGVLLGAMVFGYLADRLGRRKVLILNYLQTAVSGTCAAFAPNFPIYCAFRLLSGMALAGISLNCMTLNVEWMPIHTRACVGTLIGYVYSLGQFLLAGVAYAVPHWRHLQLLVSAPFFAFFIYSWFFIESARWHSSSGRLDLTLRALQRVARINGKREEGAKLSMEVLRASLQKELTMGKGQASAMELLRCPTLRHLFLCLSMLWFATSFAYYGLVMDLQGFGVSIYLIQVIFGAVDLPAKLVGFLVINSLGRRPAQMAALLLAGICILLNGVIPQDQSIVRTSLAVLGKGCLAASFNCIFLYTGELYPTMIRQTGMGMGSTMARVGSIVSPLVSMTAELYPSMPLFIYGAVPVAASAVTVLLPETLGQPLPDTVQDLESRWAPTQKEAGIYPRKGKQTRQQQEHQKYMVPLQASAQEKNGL
# B1: Hepatic sodium/bile acid cotransporter (Homo sapiens) (protein)
# chain: MEAHNASAPFNFTLPPNFGKRPTDLALSVILVFMLFFIMLSLGCTMEFSKIKAHLWKPKGLAIALVAQYGIMPLTAFVLGKVFRLKNIEALAILVCGCSPGGNLSNVFSLAMKGDMNLSIVMTTCSTFCALGMMPLLLYIYSRGIYDGDLKDKVPYKGIVISLVLVLIPCTIGIVLKSKRPQYMRYVIKGGMIIILLCSVAVTVLSAINVGKSIMFAMTPLLIATSSLMPFIGFLLGYVLSALFCLNGRCRRTVSMETGCQNVQLCSTILNVAFPPEVIGPLFFFPLLYMIFQLGEGLLLIAIFWCYEKFKTPKDKTKMIYTAATTEETIPGALGNGTYKGEDCSPCTA
# How the values were obtained:
# HEK293 = experiment: Cytotoxicity against human HEK293 cells expressing OAT1 assessed as reduction in cell viability at 1000 uM after 1 hr by MTT assay relative to control; format: ADME, cell-based; settings: hek293, 1 h
# HK-2 [1] = experiment: Cytotoxicity against human HK2 cells assessed as reduction in cell viability at 100 umol/L after 72 hrs by MTT assay relative to control; format: cell-based; settings: hk-2, 72 h, 100 µM
# [2] = Selectivity index, ratio of CC50 for cytotoxicity against human HepG2.2.15 cells to EC50 for HBV infected in human HepG2.2.15 cells; format: toxicity, cell-based; settings: read-out: Ratio CC50/EC50
# [3] = Drug distribution in mouse kidney at 5.47 mg/kg, po measured up to 24 hrs by LC-MS/MS analysis; format: ADME, organism-based; settings: in vivo
# HK-2 [4] = experiment: Induction of apoptosis in human HK2 cells assessed as presence of apoptotic bodies at 25 to 100 uM measured after 72 hrs by Hoechst 33342 staining based fluorescence assay; format: cell-based; settings: hk-2, 72 h
# HK-2 [5] = experiment: Induction of apoptosis in human HK2 cells assessed as nuclear pyknosis at 25 to 100 uM measured after 72 hrs by Hoechst 33342 staining based fluorescence assay; format: cell-based; settings: hk-2, 72 h
# [6] = Volume of distribution in Sprague-Dawley rat at 100 mg/kg, po measured up to 24 hrs by LC-MS/MS analysis; format: ADME, organism-based; settings: in vivo
# HK-2 [7] = experiment: Induction of apoptosis in human HK2 cells assessed as dense staining at 25 to 100 uM measured after 72 hrs by Hoechst 33342 staining based fluorescence assay; format: cell-based; settings: hk-2, 72 h
# HK-2 [8] = experiment: Induction of apoptosis in human HK2 cells assessed as early apoptotic cells at 100 uM measured after 72 hrs by Annexin V-FITC/propidium iodide staining based flow cytometry (reference value: 8.1%); format: cell-based; settings: hk-2, 72 h
# HK-2 [9] = experiment: Induction of apoptosis in human HK2 cells assessed as reduction in Bcl-2 expression at 25 to 100 uM after 72 hrs by Western blot analysis; format: cell-based; settings: hk-2, 72 h
# HK-2 [10] = experiment: Induction of apoptosis in human HK2 cells assessed as increase in Bax/Bcl2 ratio after 72 hrs by Western blot analysis; format: cell-based; settings: hk-2, 72 h
# HK-2 [11] = experiment: Reduction in mitochondrial membrane potential in human HK2 cells assessed as increase in green fluorescence at 25 to 100 uM after 72 hrs by JC-1 staining based flow cytometry; format: ADME, cell-based; settings: hk-2, 72 h
# HK-2 [12] = experiment: Cytotoxicity against human HK2 cells assessed as reduction in cell viability after 72 hrs by MTT assay; format: cell-based; settings: hk-2, 72 h
# HK-2 [13] = experiment: Induction of apoptosis in human HK2 cells assessed as increase in Bax level at 25 to 100 uM after 72 hrs by Western blot analysis; format: cell-based; settings: hk-2, 72 h
# [14] = AUC (0 to t) in Sprague-Dawley rat at 100 mg/kg, po measured up to 24 hrs by LC-MS/MS analysis; format: ADME, organism-based; parameters: dose 100 mg/kg, time < 24 hr, route oral; settings: in vivo
# [15] = target: T1, Solute carrier family 22 member 6; experiment: Substrate activity at human OAT1 expressed in HEK293 cells harboring pEGFP assessed as compound uptake measured after 20 mins by UPLC-MS/MS method; format: ADME, cell-based; settings: hek293, 20 min
# [16] = target: T1, Solute carrier family 22 member 6; experiment: Inhibition of human OAT1 expressed in HEK293 cells assessed as P-amino hippuric acid uptake inhibition incubated for 10 mins by UPLC-MS/MS method; format: ADME, cell-based
# HK-2 [17] = experiment: Reduction in mitochondrial membrane potential in human HK2 cells assessed as decrease in red fluorescence at 25 to 100 uM after 72 hrs by JC-1 staining based flow cytometry; format: ADME, cell-based; settings: hk-2, 72 h
# HK-2 [18] = experiment: Induction of apoptosis in human HK2 cells assessed as induction of cleaved caspase 3 levels at 25 to 100 uM after 72 hrs by Western blot analysis; format: cell-based; settings: hk-2, 72 h
# OAT1 = experiment: Selectivity ratio, ratio of substrate activity at human OAT1 expressed in HEK293 cells harboring pEGFP assessed as compound uptake to substrate activity in human HEK293 cells harboring pEGFP-N1 empty vector assessed as compound uptake; format: ADME, cell-based
# HK-2 [19] = experiment: Induction of apoptosis in human HK2 cells assessed as early apoptotic cells at 25 uM measured after 72 hrs by Annexin V-FITC/propidium iodide staining based flow cytometry (reference value: 8.1%); format: cell-based; settings: hk-2, 72 h
# HK-2 [20] = experiment: Induction of apoptosis in human HK2 cells assessed as early apoptotic cells at 50 uM measured after 72 hrs by Annexin V-FITC/propidium iodide staining based flow cytometry (reference value: 8.1%); format: cell-based; settings: hk-2, 72 h
# Hepatitis B virus = experiment: Antiviral activity against Hepatitis B virus infected in human HepG2.2.15 cells assessed as inhibition of viral DNA synthesis incubated for 2 days followed by replacement of fresh medium containing compound and measured at day 10 by RT-PCR analysis; format: functional, organism-based
# HK-2 [21] = experiment: Induction of mitochondrial membrane dysfunction in human HK2 cells assessed as reduction in mitochondrial potential at 100 uM after 72 hrs by JC-1 staining based flow cytometry; format: cell-based; settings: hk-2, 72 h
# HepG2 2.2.15 = experiment: Cytotoxicity against human HepG2.2.15 cells assessed as reduction in cell viability incubated for 12 hrs followed by replacement of fresh medium containing compound and measured after 2 days by CCK-8 assay; format: functional
# [22] = substrate: [H][C@@]12C[C@H](O)CC[C@]1(C)[C@@]1([H])CC[C@@]3(C)[C@@]([H])(CC[C@]3([H])[C@H](C)CCC(=O)OCCCOP(=O)(COCCn3cnc4c(N)ncnc43)OCCCOC(=O)[C@H](N)CC(C)C)[C@]1([H])[C@@H](O)C2; experiment: (§1) Substrate activity at human NTCP expressed in HEK293 cells harboring pEGFP assessed as Km for transporter-mediated drug uptake measured for 30 mins in presence of sodium chloride by UPLC-MS/MS analysis; format: cell-based
# [23] = substrate: [H][C@@]12C[C@H](O)CC[C@]1(C)[C@@]1([H])CC[C@@]3(C)[C@@]([H])(CC[C@]3([H])[C@H](C)CCC(=O)OCCCOP(=O)(COCCn3cnc4c(N)ncnc43)OCCCOC(=O)[C@@H](C)N)[C@]1([H])[C@@H](O)C2; experiment: as §1; format: cell-based
# [24] = substrate: [H][C@@]12C[C@H](O)CC[C@]1(C)[C@@]1([H])CC[C@@]3(C)[C@@]([H])(CC[C@]3([H])[C@H](C)CCC(=O)OCCCOP(=O)(COCCn3cnc4c(N)ncnc43)OCCCOC(=O)[C@H](N)[C@@H](C)CC)[C@]1([H])[C@@H](O)C2; experiment: as §1; format: cell-based
# [25] = substrate: [H][C@@]12C[C@H](O)CC[C@]1(C)[C@@]1([H])CC[C@@]3(C)[C@@]([H])(CC[C@]3([H])[C@H](C)CCC(=O)OCCCOP(=O)(COCCn3cnc4c(N)ncnc43)OCCCOC(=O)[C@H](N)C(C)C)[C@]1([H])[C@@H](O)C2; experiment: as §1; format: cell-based
molecule,measurement,setting,value
CC(C)(C)C(=O)OCOP(=O)(COCCn1cnc2c(N)ncnc21)OCOC(=O)C(C)(C)C [ADEFOVIR DIPIVOXIL],Activity,HEK293,47.16%
same,Activity,HK-2 [1],61.01%
same,selectivity ratio,[2],142
same,Drug uptake,[3],Active
same,Activity,HK-2 [4],Toxic
same,Activity,HK-2 [5],Toxic
same,Vd,[6],153.128 L/kg
same,Activity,HK-2 [7],Toxic
same,Activity,HK-2 [8],43.3%
same,Activity,HK-2 [9],Toxic
same,Activity,HK-2 [10],Dose-dependent effect
same,Activity,HK-2 [11],Toxic
same,Activity,HK-2 [12],Dose-dependent effect
same,Activity,HK-2 [13],Toxic
same,AUCt,[14],1655.225 µg/L/h
same,Activity,[15],400 pmol/min/mg
same,IC50,[16],13.5 µM
same,Activity,HK-2 [17],Toxic
same,Activity,HK-2 [18],Toxic
same,uptake ratio,OAT1,7.5
same,Activity,HK-2 [19],16.8%
same,Activity,HK-2 [20],18.9%
same,EC50,Hepatitis B virus,3.09 µM
same,Activity,HK-2 [21],Toxic
same,CC50,HepG2 2.2.15,439 µM
B1,Km,[22],45.5 µM
same,Vmax,[22],9.61 µmol/min/mg
same,Km,[23],48.2 µM
same,Vmax,[23],8.28 µmol/min/mg
same,Km,[24],102 µM
same,Vmax,[24],6.86 µmol/min/mg
same,Km,[25],113 µM
same,Vmax,[25],7.95 µmol/min/mg

# From ChEMBL document CHEMBL4346741, “Synthesis, pharmacological evaluation, and mechanistic study of adefovir mixed phosphonate derivatives bearing cholic acid and l-amino acid moieties for the treatment of HBV” (Bioorg Med Chem, 2019)
